Data as given in ChEMBL document CHEMBL4017531, “Design and Structure-Guided Development of Novel Inhibitors of the Xeroderma Pigmentosum Group A (XPA) Protein-DNA Interaction” (J Med Chem, 2017).
pIC50: −log10 of the molar value. Active and inactive are the calls of the source. No cut-off for these calls is given here.

What was measured:
[1] = biological target: DNA repair protein complementing XP-A cells (Homo sapiens, UniProt P23025); test: Inhibition of full length human XPA expressed in Sf9 cells assessed as reduction in interaction of XPA with 32P-labeled cisplatin-modified dsDNA by EMSA
DNA repair protein complementing XP-A cells, sequence (P23025 whole entry): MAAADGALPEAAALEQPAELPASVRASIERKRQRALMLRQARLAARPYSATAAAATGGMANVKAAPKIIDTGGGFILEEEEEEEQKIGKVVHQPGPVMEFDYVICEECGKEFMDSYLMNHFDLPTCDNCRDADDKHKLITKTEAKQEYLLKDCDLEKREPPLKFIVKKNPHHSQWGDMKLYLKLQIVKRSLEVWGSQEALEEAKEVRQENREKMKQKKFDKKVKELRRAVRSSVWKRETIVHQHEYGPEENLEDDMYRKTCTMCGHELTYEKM

Salmonidae = test: Binding affinity to salmon sperm DNA assessed as DNA intercalation by SYBR-green dye based fluorescence assay
Homo sapiens = species on record: Homo sapiens; settings: 10 uM
Description: Inhibition of RPA (unknown origin) at 10 uM by EMSA assay

| Compound | pIC50 [1] | Activity (Salmonidae) | inhibition (Homo sapiens) |
| --- | --- | --- | --- |
| CC1=NN(c2cccc(C(=O)O)c2)C(=O)/C1=C\c1ccc(-c2ccc(C(=O)NCc3ccc(F)cc3)cc2)o1 | < 4.30 | – | – |
| CC1=NN(c2ccc(C(=O)O)cc2)C(=O)/C1=C\c1ccc(-c2ccc(Cl)c(C(=O)NCC3CC3)c2)o1 | – | inactive | inactive |
| CC1=NN(c2cccc(C(=O)NCC3CC3)c2)C(=O)/C1=C\c1ccc(-c2ccc(Cl)c(C(=O)NCC3CC3)c2)o1 | < 4.30 | – | – |
| CC1=NN(c2cccc(C(=O)O)c2)C(=O)/C1=C\c1ccc(-c2ccc(Cl)c(C(=O)NCc3ccc(F)cc3)c2)o1 | – | inactive | – |
| CC1=NN(c2cccc(C(=O)O)c2)C(=O)/C1=C\c1ccc(-c2ccc(C(=O)NCC3CC3)cc2)o1 | < 4.30 | – | – |
| CC1=NN(c2ccc(C(=O)O)cc2)C(=O)/C1=C\c1ccc(-c2ccc(Cl)c(C(=O)NCc3ccc(F)cc3)c2)o1 | – | inactive | inactive |
| CC1=NN(c2ccc(C(=O)O)cc2)C(=O)/C1=C\c1ccc(-c2ccc(C(=O)NCc3ccc(F)cc3)cc2)o1 | – | inactive | – |
| CCOC(=O)c1cccc(N2N=C(C)/C(=C/c3ccc(-c4ccc(Cl)c(C(=O)NCc5ccc(F)cc5)c4)o3)C2=O)c1 | < 4.60 | – | – |
| CC1=NN(c2ccc(Cl)c(C(=O)O)c2)C(=O)/C1=C\c1ccc(-c2ccc(Cl)c(C(=O)OCc3ccccc3Cl)c2)o1 | – | Active | inactive |
| CC1=NN(c2ccc(Cl)c(C(=O)O)c2)C(=O)/C1=C\c1ccc(-c2ccc(Cl)c(C(=O)OCc3ccccc3)c2)o1 | – | Active | inactive |
| CC1=NN(c2cccc(C(=O)O)c2)C(=O)/C1=C\c1ccc(-c2ccc(Cl)c(C(=O)NCC3CC3)c2)o1 | – | inactive | – |
